Each structure is given as a SMILES string.

A word on the melting point: it is the temperature, or range, at which the solid turns liquid. `CCC1C(=O)c2c(O)cc(O)cc2Sc2ccc(SC)cc21` (stereo not shown) [Example 35] showed a melting point of 167.4 to 168.2 °C.
`O=C1Cc2cc(-c3ccccc3)ccc2Oc2cc(O)cc(O)c21` [Example 54] had a melting point of 170.3 to 172 °C.
On to `O=C1Cc2ccc(-c3cccc(Cl)c3)cc2Sc2cc(O)cc(O)c21` [Example 90], for which the melting point lay in the range of 180.3 to 191.6 °C.
In the case of `O=C1Cc2cc(-c3cc4ccccc4o3)ccc2Oc2cc(O)cc(O)c21` [Example 94] it was 268.4 to 268.5 °C; in that of `O=C1Cc2ccc(-c3cc4ccccc4o3)cc2Sc2cc(O)cc(O)c21` [Example 92], 251.6 to 253.8 °C; in that of `CON=C(C)c1ccc2c(c1)CCc1c(O)cc(O)cc1S2` [Example 138], 176.7 to 177.6 °C.
With `CCC1C(=O)c2cc(O)c(O)cc2Sc2cc(-c3ccco3)ccc21` (stereo not shown) [Example 153] the figure was 242.9 to 248.4 °C; with `O=C1Cc2cc(-c3cccs3)ccc2Sc2cc(O)cc(O)c21` [Example 76], 240.1 to 246.1 °C.
In the case of `Cc1ccc(-c2ccc3c(c2)CC(=O)c2c(O)cc(O)cc2O3)cc1` [Example 60] it was 174 to 175 °C; in that of `Oc1cc(O)c2c(c1)Sc1cc(-c3cccs3)ccc1CC2` [Example 123], 196.1 to 198.5 °C; in that of `CC(C)(C)c1ccc2c(c1)CCc1c(O)cc(O)cc1S2` [Example 137], 151.7 to 153.7 °C.
Consider `CSc1ccc2c(c1)Sc1cc(O)c(O)cc1C(=O)C2` [Example 23], for which the melting point was in the range of 232 to 236.9 °C.
With `O=C1Cc2ccc(Br)cc2Sc2cc(O)c(O)cc21` [Example 20], the melting point is > 250 °C.
In the case of `CCC1C(=O)c2cc(O)c(O)cc2Sc2cc(-c3ccc(OC(F)(F)F)cc3)ccc21` (stereo not shown) [Example 169] it was 216.8 to 219.1 °C; in that of `CCC1C(=O)c2cc(O)c(O)cc2Sc2cc(-c3cccc([N+](=O)[O-])c3)ccc21` (stereo not shown) [Example 175], 221.8 to 225 °C; in that of `O=C1Cc2ccc(-c3ccc(-c4ccccc4)cc3)cc2Oc2cc(O)cc(O)c21` [Example 96], 261.6 to 263.2 °C.
In the case of `O=C1Cc2cc(Br)ccc2Sc2cc(O)c(O)cc21` [Example 22] it was 285.7 °C (dec.); in that of `Nc1cccc(-c2ccc3c(c2)CC(=O)c2c(O)cc(O)cc2O3)c1` [Example 59], > 300 °C (dec.); in that of `Cc1ccccc1-c1ccc2c(c1)Sc1cc(O)cc(O)c1C(=O)C2` [Example 89], 178.1 to 198.3 °C.
For the molecule `O=C1Cc2ccc(I)cc2Sc2cc(O)cc(O)c21` [Example 8, 3-Iodo-7,9-dihydroxy-10,11-dihydrodibenzo[b,f]thiepin-10-one], the melting point was > 250 °C (dec.).
With `CC1C(=O)c2c(O)cc(O)cc2Sc2ccccc21` (stereo not shown) [Example 39] the figure was 152.1 to 153.4 °C; with `CCC1C(=O)c2cc(O)c(O)cc2Sc2cc(-c3ccccc3)ccc21` (stereo not shown) [Example 154], 274.3 to 276.1 °C.
In the case of `CCC1C(=O)c2cc(O)c(O)cc2Sc2cc(-c3ccc(C)cc3)ccc21` (stereo not shown) [Example 160] it was 271.9 to 273.3 °C; in that of `O=C1Cc2ccc(CCc3ccccc3)cc2Oc2cc(O)cc(O)c21` [Example 51], 125.9 to 127.7 °C; in that of `O=C1Cc2ccc(-c3cc4ccccc4o3)cc2Oc2cc(O)cc(O)c21` [Example 95], 257.9 to 259.9 °C.
In turn, `O=C1Cc2cc(-c3cccc(Cl)c3)ccc2Oc2cc(O)cc(O)c21` [Example 61] showed a melting point of 208.9 to 213.6 °C.
With `O=C1Cc2cc(-c3cccs3)ccc2Oc2cc(O)cc(O)c21` [Example 58] the figure was 199.9 to 201 °C.
In the case of `O=C1Cc2ccc(-c3cccc(C(F)(F)F)c3)cc2Oc2cc(O)cc(O)c21` [Example 73] it was 183 to 184.7 °C.
In the case of `Oc1cc(O)c2c(c1)Oc1cc(-c3cccc(Cl)c3)ccc1CC2` [Example 118] it was 137.1 to 143.2 °C; in that of `CCCCc1ccc2c(c1)CC(=O)c1c(O)cc(O)cc1O2` [Example 50], 105.6 to 106.8 °C.
Molecule `CCC1C(=O)c2cc(O)c(O)cc2Sc2ccc(SC)cc21` (stereo not shown) [Example 36] showed a melting point of 199.6 to 200.5 °C.
In the case of `O=C1Cc2cc(-c3ccccc3)ccc2Oc2cc(O)c(O)c(O)c21` [Example 88] it was 124 to 125.8 °C; in that of `Oc1cc2c(c(O)c1O)CCc1cc(-c3ccccc3)ccc1O2` [Example 125], 175.1 to 178.3 °C; in that of `CC1(C)C(=O)c2cc(O)c(O)cc2Sc2ccccc21` [Example 31], 194.2 to 196.1 °C.
`O=C1Cc2cc(-c3ccc(O)c(O)c3)ccc2Oc2cc(O)cc(O)c21` [Example 93]: the melting point was > 250 °C.
In the case of `CCC1C(=O)c2cc(O)c(O)cc2Sc2ccc(-c3cc4ccccc4o3)cc21` (stereo not shown) [Example 161] it was 277.4 to 279.2 °C; in that of `Cc1ccc(-c2ccc3c(c2)Oc2cc(O)cc(O)c2CC3)cc1` [Example 112], 195.1 to 197.1 °C; in that of `CC1=Cc2cc(O)c(O)cc2Sc2ccccc21` [Example 145], 68.2 to 70.1 °C.
In the case of `O=C1Cc2ccc(-c3cccc(C(F)(F)F)c3)cc2Sc2cc(O)cc(O)c21` [Example 91] it was 225.3 to 226.5 °C; in that of `Nc1cccc(-c2ccc3c(c2)CCc2c(O)cc(O)cc2O3)c1` [Example 119], 197.2 to 199.3 °C; in that of `CCC(=O)c1ccc2c(c1)CCc1c(O)cc(O)cc1O2` [Example 10, 8-Propionyl-10,11-dihydrodibenz[b,f]oxepin-1,3-diol], 159 to 160.3 °C.
Consider `O=C(c1ccc2c(c1)CCc1c(O)cc(O)cc1S2)C1CC1` [Example 135], for which the melting point was in the range of 142.2 to 143.5 °C.
In the case of `CCC1(CC)C(=O)c2cc(O)c(O)cc2Sc2ccccc21` [Example 3] it was 238 to 244.1 °C.
In the case of `O=C1Cc2ccc(-c3ccco3)cc2Oc2cc(O)cc(O)c21` [Example 70] it was 249.6 to 250.8 °C; in that of `O=C1Cc2cc(-c3ccco3)ccc2Oc2cc(O)cc(O)c21` [Example 57], 171 to 172.7 °C; in that of `CCC1C(=O)c2cc(O)c(O)cc2Sc2cc(-c3cccc(C(F)(F)F)c3)ccc21` (stereo not shown) [Example 156], 109.7 to 111.9 °C.
With `Oc1cc(O)c2c(c1)Oc1ccc(-c3ccccc3)cc1CC2` [Example 109] the figure was 176.7 to 179.2 °C; with `CC(=O)c1cc(-c2ccc3c(c2)CC(=O)c2c(O)cc(O)cc2O3)ccc1C` [Example 67], 228.4 to 230.8 °C; with `Nc1cccc(-c2ccc3c(c2)CC(=O)c2c(O)cc(O)cc2S3)c1` [Example 83], > 200 °C (dec.).
Consider `Oc1cc(O)c2c(c1)Oc1cc(-c3ccccc3)ccc1CC2` [Example 7, 7-Phenyl-10,11-dihydrodibenz[b,f]oxepin-1,3-diol], for which the melting point lay in the range of 179.6 to 180.4 °C.
With `CCCCC(=O)c1ccc2c(c1)CCc1c(O)cc(O)cc1O2` [Example 130] the figure was 119.8 to 121.7 °C; with `CCCCC(=O)c1ccc2c(c1)CCc1c(O)cc(O)cc1S2` [Example 131], 155.1 to 158.7 °C.
In the case of `O=C1Cc2cc(-c3cccc([N+](=O)[O-])c3)ccc2Oc2cc(O)cc(O)c21` [Example 56] it was 244.3 to 250.7 °C; in that of `O=[N+]([O-])c1cccc(-c2ccc3c(c2)CCc2c(O)cc(O)cc2O3)c1` [Example 120], 199.6 to 201.8 °C.
For `Oc1cc(O)c2c(c1)Oc1cc(-c3ccco3)ccc1CC2` [Example 115], the melting point fell in the range of 198.6 to 201.1 °C.
In the case of `O=C1Cc2ccc(-c3ccc(OC(F)(F)F)cc3)cc2Oc2cc(O)cc(O)c21` [Example 97] it was 197.7 to 200.8 °C; in that of `O=C1Cc2cc(-c3cccnc3)ccc2Oc2cc(O)cc(O)c21` [Example 55], 293.9 to 300.1 °C; in that of `CCCC(=O)c1ccc2c(c1)CCc1c(O)cc(O)cc1O2` [Example 128], 157.6 to 157.9 °C.
`O=C1Cc2cc(Br)ccc2Sc2cc(O)cc(O)c21` [Example 13] gave a melting point of 236.4 to 237.3 °C.
With `COc1cc(O)c2c(c1)Sc1ccc(Br)cc1CC2=O` [Example 14] the figure was 187.5 °C; with `CCC1=Cc2cc(O)c(O)cc2Sc2ccccc21` [Example 143], 37.9 to 41.5 °C; with `O=C1Cc2ccc(-c3ccccc3)cc2Sc2cc(O)cc(O)c21` [Example 87], 209.7 to 212 °C.
In the case of `O=C(c1ccc2c(c1)CCc1c(O)cc(O)cc1S2)C1CCC1` [Example 134] it was 141.2 to 141.7 °C; in that of `CC1C(=O)c2ccc(O)cc2Sc2ccccc21` (stereo not shown) [Example 41], 190 to 191.6 °C; in that of `OCCCc1ccc2c(c1)CCc1c(O)cc(O)cc1O2` [Example 103], 153.3 to 154.8 °C.
As for `Oc1cc(O)c2c(c1)Oc1ccc(-c3cccs3)cc1CC2` [Example 111], the melting point fell in the range of 188.3 to 191.4 °C.
Turning to `CCc1ccc2c(c1)CC(=O)c1c(O)cc(O)cc1S2` [Example 48], the melting point lay within 179.1 to 180.1 °C.
In the case of `O=CNc1cccc(-c2ccc3c(c2)CC(=O)c2c(O)cc(O)cc2O3)c1` [Example 75] it was 241 to 247.08 °C.
With `ON=C1Cc2ccccc2Oc2cc(O)cc(O)c21` [Example 24] the figure was 208 to 213.7 °C.
With `CCC1C(=O)c2cc(O)c(O)cc2Sc2cc(-c3cccc(N)c3)ccc21` (stereo not shown) [Example 176] the figure was 245.5 to 246.4 °C; with `O=C1Cc2ccc(-c3cccs3)cc2Sc2cc(O)cc(O)c21` [Example 81], 214.3 to 215.3 °C; with `O=C1Cc2ccc(-c3cccs3)cc2Oc2cc(O)cc(O)c21` [Example 5, 3-(2-Thiophene)-7,9-dihydroxy-10,11-dihydrodibenz[b,f]oxepin-10-one], 227.6 to 228.1 °C.
In turn, `CCC1C(=O)c2cc(O)c(O)cc2Sc2cc(-c3ccc(O)cc3)ccc21` (stereo not shown) [Example 177] came in with a melting point of 155.4 to 159.4 °C.
